Data on 2 sequences can be found in patent US20250221936A1, “ENGINEERED HEMICHANNELS, ENGINEERED VESICLES, AND USES THEREOF” (VIRGINIA TECH INTELLECTUAL PROPERTIES, INC., priority 2018, published 2025).

Test [1] addresses T1, PKC-ε phosphorylation of Cx43-CT substrate at Ser368 (Rattus norvegicus, UniProt P08050).
T1 construct: substrate (Cx43-CT: amino acids 255 to 382); GST (N); made in house; host or cells: E. coli BL21 (Cx43 CT); PKC-ε purchased (Life, 37717L)
The conditions noted are these: purified PKC enzyme and Cx43 CT substrate; cited from earlier work.

For a further test, the target named is T2, PKC-ε (Homo sapiens, UniProt Q02156).
T2 construct: purchased Life 37717L
T2 sequence (Q02156 1-737): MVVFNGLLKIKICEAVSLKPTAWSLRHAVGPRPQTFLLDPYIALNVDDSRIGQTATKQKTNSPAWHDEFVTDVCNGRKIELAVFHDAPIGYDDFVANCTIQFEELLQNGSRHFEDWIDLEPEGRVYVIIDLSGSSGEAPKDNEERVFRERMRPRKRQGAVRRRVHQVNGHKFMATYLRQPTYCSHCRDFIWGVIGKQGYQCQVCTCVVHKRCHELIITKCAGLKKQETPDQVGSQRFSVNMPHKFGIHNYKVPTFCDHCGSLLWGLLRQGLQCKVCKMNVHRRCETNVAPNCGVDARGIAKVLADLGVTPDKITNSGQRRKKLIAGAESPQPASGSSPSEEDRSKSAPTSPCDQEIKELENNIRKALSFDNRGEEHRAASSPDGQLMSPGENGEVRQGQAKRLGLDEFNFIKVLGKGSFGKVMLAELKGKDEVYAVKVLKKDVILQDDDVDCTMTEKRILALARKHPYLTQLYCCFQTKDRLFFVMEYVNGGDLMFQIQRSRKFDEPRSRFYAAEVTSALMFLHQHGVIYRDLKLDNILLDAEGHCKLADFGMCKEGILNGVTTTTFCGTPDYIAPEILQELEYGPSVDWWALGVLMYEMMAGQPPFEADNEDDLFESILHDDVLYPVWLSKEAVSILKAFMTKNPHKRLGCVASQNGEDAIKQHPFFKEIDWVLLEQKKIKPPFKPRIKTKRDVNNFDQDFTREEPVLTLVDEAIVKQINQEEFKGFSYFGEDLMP
As to the kind of experiment: EDC cross-linking and MS/MS, PKC-ε. It is filed as binding. The method, then: To characterize the interaction between the Cx43 CT substrate and peptides, the in vitro kinase assay was performed as above with modification and the constituents then subjected to a cross-linking reaction. The assay buffer used was 20 mM 3-(N-morpholino) propanesulfonic acid (MOPS), pH 7.2. All other reagents present in the kinase reaction were maintained as described above. The reaction was allowed to proceed at 37° C. for 15 minutes. Afterwards, the carbodiimide crosslinker 1-Ethyl-3-(3-dimethylaminopropyl) carbodiimide HCl (EDC) (Thermo, 22980) was added to each solution for a final concentration of 20 mM. The solution was allowed to cross-link for one hour at room temperature. The reaction was stopped by the addition of 4×LDS loading buffer, boiled for 5 minutes and subsequently separated by PAGE. The resulting gel was stained in Coomassie brilliant blue (Sigma, B0770) for two hours and destained in a solution of 4% methanol 7% acetic acid overnight. Gel bands were subsequently excised for mass spectrometric analysis. For the direct interaction between protein and peptides, PBS, pH 7.5 was used as the coupling buffer. The protein (50 μg/ml) and peptide (25 μM) were allowed to react at room temperature for one hour before EDAC was added to the reaction mixture. The reaction was Western blotted for Cx43, GST or NeutroAvidin. […]

The subject of test [2] is ARPE19 cell (immortalized human RPE cells) monolayers. Conditions: pre-treatment, cited from earlier work.
The next test concerns Cx43-Hela cells. Conditions: cited from earlier work.

Entries after “also recorded” stand apart in the source; their conditions may differ. Read-outs that look alike come from different tables or passages of the source.

T1 sequence (P08050 255-382): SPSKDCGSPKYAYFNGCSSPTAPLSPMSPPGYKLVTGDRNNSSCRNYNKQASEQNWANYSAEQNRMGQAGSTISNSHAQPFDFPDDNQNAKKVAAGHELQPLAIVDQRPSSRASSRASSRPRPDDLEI

Regarding RQPKIWFPNRRKPWKKRPRPDDLEI [alpha CT1], the “S368 phosphorylation in vitro” value in test [1] is reported as “promoted S368 phosphorylation in vitro in a dose-dependent manner”. Further, the “interaction with PKC-ε” value with PKC-ε was “no evidence for interaction between PKCE and alpha CT1”. Further, the “VEGF-induced deterioration of TER” value in test [2] was “prevent VEGF-induced deterioration of TER”; in test [2] (listed as ACTI), “blocked by pre-treating the cells with the ACTI peptide”.

In the case of VFFKGVKDRVKGRSD [JM2], in the test with Cx43-Hela cells (10 μM for 2, 6, and 24 hrs), the “Cx43 GJ labeling” value was “displayed little GJ labeling; also recorded: GJ labeling began to return at 6 hrs, and appeared normal after 24 hrs”. Moreover, the microtubule organization result in the test on Cx43-Hela cells (2 hr) was “disruption of microtubule organization”.
